Experimental data published in PMC5496853, “Dual activation of neuronal G protein-gated inwardly rectifying potassium (GIRK) channels by cholesterol and alcohol” (Scientific Reports, 2017).

Legend:
[1] = target: T1, GIRK2 (Mus musculus, UniProt P48542); assay: fluorescence (ACMA) K+ flux assay, purified channel reconstituted in liposomes; type: biochemical
T1 construct: gene Kcnj6; amino acids 52-380
T1 sequence (P48542 52-380): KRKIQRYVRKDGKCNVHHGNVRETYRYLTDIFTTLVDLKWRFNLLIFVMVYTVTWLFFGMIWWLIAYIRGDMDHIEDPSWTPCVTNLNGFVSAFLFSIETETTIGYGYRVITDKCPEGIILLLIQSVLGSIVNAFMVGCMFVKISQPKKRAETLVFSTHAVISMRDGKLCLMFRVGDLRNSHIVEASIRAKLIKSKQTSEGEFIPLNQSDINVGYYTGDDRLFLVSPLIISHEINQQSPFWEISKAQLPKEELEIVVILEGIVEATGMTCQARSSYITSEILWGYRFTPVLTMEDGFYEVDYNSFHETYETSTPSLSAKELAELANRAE

[2] = target: T1, GIRK2; assay: fluorescence (ACMA) K+ flux assay, purified channel reconstituted in liposomes with brain PIP2; type: biochemical

EC50 [1]	SMILES	fluorescence (ACMA) K+ flux assay, purified channel reconstituted in liposomes w [2]
25.1 ± 3.3 µM	CCCCCCCC(=O)OC[C@H](COP(=O)(O)O[C@@H]1[C@H](O)[C@H](O)[C@@H](OP(=O)(O)O)[C@H](OP(=O)(O)O)[C@H]1O)OC(=O)CCCCCCC [diC8-PIP2]	–
–	CCO [ethanol]	> 20 mM
